Assay results: patent publication US6649367B2, “Human cancer cell line malignantly altered by expression of angiogenic factor” (Eisai Co., Ltd, priority 2001, dated 2003)

Tested on: KP-1/VEGF cells
Assay: Effect on in vivo angiogenesis induced by KP-1/VEGF (chamber transplanted in mouse dorsal air sac, 51Cr-labelled blood cells)
Conditions: for In vivo angiogenesis-inducing activity (volume of blood vessel): C57BL/6N mouse, KP-1/VEGF chamber, four days after transplantation; for In vivo angiogenesis inhibitory effect: =(X−B)/(A−B)×100, A control, B collagen, X administered group
Description: 3×10^6 cells/0.17 ml suspension of KP-1/VEGF cells was prepared using a collagen solution. In a chamber formed by adhering 0.45-μm Durapore filter membrane (Millipore) to a chamber ring (Millipore), 0.17 ml of the suspension was injected through the injection inlet and sealed. An air sac of about 10 ml was formed on dorsal subcutaneous portion of a 6-week-old female C57BL/6N mouse under anesthesia and the chamber enclosing the cells therein was transplanted in the air sac.
From the day of transplantation, ZD6474 as a VEGFR kinase inhibitor and ZD1839(Iressa) as an EGFR kinase inhibitor were each orally administered in dosage of 25, 50 or 100 mg/kg once a day for 4 days.
Four days after the transplantation, 2,500,000 cpm/ml of blood cell suspension prepared by labeling the cells with sodium chromate (^51Cr) (Amersham Pharmacia) was injected in an amount of 0.2 ml each through the tail vein of the chamber-transplanted mouse, and then the skin portion contacting the chamber was cut out and the radioactivity thereof was measured by use of a γ-counter. From the measured radioactivity, the amount of blood (volume of blood vessel) was calculated and was used as an index of in vivo angiogenesis-inducing activity.
Further, providing that the in vivo angiogenesis-inducing activity of control is A, the in vivo angiogenesis-inducing activity of collagen is B, and the in vivo angiogenesis-inducing activity of each administered group is X, in vivo angiogenesis inhibitory effect was obtained by the following equation. In vivo angiogenesis inhibitory effect (%)

[1] = 25 mg/kg orally once a day for 4 days
[2] = 50 mg/kg orally once a day for 4 days
[3] = 100 mg/kg orally once a day for 4 days

| Compound | In vivo angiogenesis-inducing activity (volume of blood vessel) [1] [µL] | In vivo angiogenesis-inducing activity (volume of blood vessel) [2] [µL] | In vivo angiogenesis-inducing activity (volume of blood vessel) [3] [µL] | In vivo angiogenesis inhibitory effect [1] [%] | In vivo angiogenesis inhibitory effect [2] [%] | In vivo angiogenesis inhibitory effect [3] [%] |
| --- | --- | --- | --- | --- | --- | --- |
| COc1cc2ncnc(Nc3ccc(F)c(Cl)c3)c2cc1OCCCN1CCOCC1 [ZD1839] | 2.75 ± 0.66 | 2.77 ± 0.47 | 2.76 ± 0.73 |  |  |  |
| COc1cc2c(Nc3ccc(Br)cc3F)ncnc2cc1OCC1CCN(C)CC1 [ZD6474] | 2.56 ± 0.26 | 2.18 ± 0.38 | 1.47 ± 0.40 | 68.0 | 40.8 | −10.9 |
